According to US20040058861A1, “Use of lipopeptides in immunotherapy of HIV+ individuals” (priority 2000, published 2004):
Where a SMILES comes first, the peptide text is derived from it. The star is where a group is joined. Palmitoyl = CCCCCCCCCCCCCCCC(=O)*

Experiment: Solubilization of each lyophilized lipopeptide in pure acetic acid
Assay type: physicochemical
Conditions: pure acetic acid added to obtain 12.5 mg net/ml; before sonication
Protocol: Each lipopeptide is then solubilized by adding pure acetic acid to obtain a concentration of 12.5 mg net/ml. […] If the aggregates are not dissociated, the sonication is continued, separating each period of sonication (30 s) by 30 s gaps of no sonication, during which the bottles are shaken manually. At the end of the sonication step, the suspensions should be homogeneous (but will not be clear). Each lipopeptide is then diluted by adding water for injectable preparation. If the solution obtained is not totally clear, steps of heating in a water bath (at 40° C.±2° C.) and sonication (1 min maximum) may be carried out, separating them by 30 s gaps of no sonication. The final preparation is obtained by mixing the lipopeptides in equal weight amounts, adding them in the following order (the most hydrophilic to the most hydrophobic lipopeptides):

**Q.** Which “solubility in pure acetic acid” value does the source give for `CCCCCCCCCCCCCCCC(=O)NCCCC[C@H](NC(=O)[C@H](CC(C)C)NC(=O)[C@H](CCCCN)NC(=O)[C@H](Cc1ccc(O)cc1)NC(=O)[C@H](CC(C)C)NC(=O)[C@H](Cc1c[nH]c2ccccc12)NC(=O)CNC(=O)[C@H](Cc1ccccc1)NC(=O)[C@@H](NC(=O)[C@H](CC(C)C)NC(=O)[C@@H]1CCCN1C(=O)[C@H](Cc1ccc(O)cc1)NC(=O)[C@H](CCCNC(=N)N)NC(=O)[C@@H](NC(=O)CNC(=O)[C@@H]1CCCN1C(=O)CNC(=O)[C@@H]1CCCN1C(=O)[C@@H](NC(=O)[C@H](Cc1ccc(O)cc1)NC(=O)[C@H](CC(N)=O)NC(=O)[C@H](CCC(N)=O)NC(=O)[C@H](Cc1c[nH]c2ccccc12)NC(=O)[C@H](CC(=O)O)NC(=O)[C@@H]1CCCN1C(=O)[C@H](Cc1ccccc1)NC(=O)[C@H](Cc1ccc(O)cc1)NC(=O)CNC(=O)[C@H](CCC(N)=O)NC(=O)[C@@H](NC(=O)[C@@H](N)Cc1c[nH]cn1)[C@@H](C)O)[C@@H](C)O)C(C)C)[C@@H](C)O)C(N)=O` [Nef 116] (H-HTQGYFPDWQNYTPGPGVRYPLTFGWLYKLK(Palmitoyl)-NH2; N-terminus assumed) here?
**A.** soluble
